From the OligoGym collection
Where “and” joins values, the source holds several entries; their conditions need not be identical. Identical values can stand only once. After the bases stand the sugars from the 5' end (letter, count) and the backbone: PS all phosphorothioate, else s phosphorothioate and o phosphodiester by linkage. Methylation of C is not given here. e = 2'-O-(2-methoxyethyl) (MOE); k = constrained ethyl (cEt); d = 2'-deoxy (DNA)

Biological target: IRF4
Conditions: ASO

For AGTTGTCTGGCTAGCA (sugars k3 d10 k3, PS), which target mRNA inhibition (SK-MEL-28, 4 µM) is on record?
The target mRNA inhibition was 80%.

With AGTTTACACTGGATCT (sugars k3 d10 k3, PS) as the sequence, how does the target mRNA inhibition (SK-MEL-28, 4 µM) read?
The target mRNA inhibition was 70% and 74%.

With ATAAACACCTCAGCTG (sugars k3 d10 k3, PS) as the sequence, how does the target mRNA inhibition (SK-MEL-28, 4 µM) read?
Its target mRNA inhibition is 21%.

For ATAATGTTTCAGTGCT (sugars k3 d10 k3, PS), which target mRNA inhibition (SK-MEL-28, 4 µM) is on record?
Its target mRNA inhibition is 76%.

Which target mRNA inhibition (SK-MEL-28, 4 µM) does the source give for ATACAAAACGGACTGG (sugars k3 d10 k3, PS) here?
Its target mRNA inhibition is 15%.

How did the target mRNA inhibition (MM.1R, 1 µM) turn out when ATACATTGAGGCATAC (sugars k3 d10 k3, PS) was run?
Its target mRNA inhibition is 2%.

ATACATTTCTTTTACG (sugars k3 d10 k3, PS) was tested. Which target mRNA inhibition (SK-MEL-28, 4 µM) did it give?
The target mRNA inhibition was 22%.

Which target mRNA inhibition (SK-MEL-28, 4 µM) does the source give for ATACTTAAGCAAGTGG (sugars k3 d10 k3, PS) here?
The target mRNA inhibition was 76%.

ATAGAGCCAGAGCAGT (sugars k3 d10 k3, PS) was tested. Which target mRNA inhibition (SK-MEL-28, 4 µM) did it give?
The target mRNA inhibition was 66%.

For ATAGGAAGCACTGGCA (sugars k3 d10 k3, PS), which target mRNA inhibition (SK-MEL-28, 4 µM) is on record?
The target mRNA inhibition was 42%.

ATAGTAAGTTCTAGTC (sugars k3 d10 k3, PS) was tested. Which target mRNA inhibition (MM.1R, 1 µM) did it give?
The target mRNA inhibition was 11%.

ATAGTGCAATGAAATG (sugars k3 d10 k3, PS) was tested. Which target mRNA inhibition (SK-MEL-28, 4 µM) did it give?
The target mRNA inhibition was 36%.

With ATATAACGGTGTTTCA (sugars k3 d10 k3, PS) as the sequence, how does the target mRNA inhibition (SK-MEL-28, 4 µM) read?
The target mRNA inhibition was 58%.

For ATCAAGTAAAGTGATC (sugars k3 d10 k3, PS), which target mRNA inhibition (SK-MEL-28, 4 µM) is on record?
The target mRNA inhibition was 29%.

ATCAATGATGGCAGTC (sugars k3 d10 k3, PS) was tested. Which target mRNA inhibition (SK-MEL-28, 4 µM) did it give?
The target mRNA inhibition was 57%.

Which target mRNA inhibition (SK-MEL-28, 4 µM) does the source give for ATCAGAATGGCGAGTT (sugars k3 d10 k3, PS) here?
The target mRNA inhibition was 47%.

Which target mRNA inhibition (MM.1R, 1 µM) does the source give for ATCAGATTGAATCCAT (sugars k3 d10 k3, PS) here?
The target mRNA inhibition was 23%.

ATCAGTCTCAAAAACG (sugars k3 d10 k3, PS) was tested. Which target mRNA inhibition (SK-MEL-28, 4 µM) did it give?
The target mRNA inhibition was 41%.

How did the target mRNA inhibition (SK-MEL-28, 4 µM) turn out when ATCCACACCAATGGCA (sugars k3 d10 k3, PS) was run?
The target mRNA inhibition was 34%.

With ATCCATGTTGCATGGC (sugars k3 d10 k3, PS) as the sequence, how does the target mRNA inhibition (SK-MEL-28, 4 µM) read?
The target mRNA inhibition was 61%.

Which target mRNA inhibition (MM.1R, 1 µM) does the source give for ATCCGAAAAGACTGGA (sugars k3 d10 k3, PS) here?
The target mRNA inhibition was -20%.

With ATCTAATCCACAATCA (sugars k3 d10 k3, PS) as the sequence, how does the target mRNA inhibition (SK-MEL-28, 4 µM) read?
The target mRNA inhibition was 30%.

For ATCTGATCCGGACTCT (sugars k3 d10 k3, PS), which target mRNA inhibition (SK-MEL-28, 4 µM) is on record?
The target mRNA inhibition was 9%.

ATCTGTATAGTTCTCA (sugars k3 d10 k3, PS) was tested. Which target mRNA inhibition (MM.1R, 1 µM) did it give?
Its target mRNA inhibition is 55%.

Which target mRNA inhibition (SK-MEL-28, 4 µM) does the source give for ATCTTAACCTGGAGAA (sugars k3 d10 k3, PS) here?
Its target mRNA inhibition is 28%.

With ATGAGGAAGCCGTTCC (sugars k3 d10 k3, PS) as the sequence, how does the target mRNA inhibition (SK-MEL-28, 4 µM) read?
The target mRNA inhibition was 58%.

With ATGATAAGGCACTACT (sugars k3 d10 k3, PS) as the sequence, how does the target mRNA inhibition (SK-MEL-28, 4 µM) read?
Its target mRNA inhibition is 13%.

ATGCATAACACGGTGT (sugars k3 d10 k3, PS) was tested. Which target mRNA inhibition (SK-MEL-28, 4 µM) did it give?
Its target mRNA inhibition is 45%.

ATGCATAGTGATGAGA (sugars k3 d10 k3, PS) was tested. Which target mRNA inhibition (SK-MEL-28, 4 µM) did it give?
The target mRNA inhibition was 45%.

For ATGGACATCTGCGGGT (sugars k3 d10 k3, PS), which target mRNA inhibition (SK-MEL-28, 4 µM) is on record?
Its target mRNA inhibition is 50%.

Which target mRNA inhibition (SK-MEL-28, 4 µM) does the source give for ATGGACCACGCAGCCT (sugars k3 d10 k3, PS) here?
The target mRNA inhibition was 39%.

Which target mRNA inhibition (SK-MEL-28, 4 µM) does the source give for ATGGATAGTTTCTCAT (sugars k3 d10 k3, PS) here?
The target mRNA inhibition was 25%.

Which target mRNA inhibition (MM.1R, 1 µM) does the source give for ATGGTATTTTTCCGTT (sugars k3 d10 k3, PS) here?
The target mRNA inhibition was 32% and 43%.

ATGTATACATCACTGC (sugars k3 d10 k3, PS) was tested. Which target mRNA inhibition (SK-MEL-28, 4 µM) did it give?
The target mRNA inhibition was 67%.

How did the target mRNA inhibition (MM.1R, 1 µM) turn out when “ATGTGATAGCTGAGCT (sugars k2 d9 e3 k2, PS)” was run?
The target mRNA inhibition was 0%.

“ATGTGTATTACTCTTA (sugars kddddddddddkekek, PS)” was tested. Which target mRNA inhibition (MM.1R, 1 µM) did it give?
The target mRNA inhibition was 17% and 4%.

For ATGTGTTCTGGTAAAT (sugars k3 d10 k3, PS), which target mRNA inhibition (MM.1R, 1 µM) is on record?
The target mRNA inhibition was 34%.

Which target mRNA inhibition (MM.1R, 1 µM) does the source give for ATGTTAGCCAATTCCT (sugars k3 d10 k3, PS) here?
The target mRNA inhibition was 30% and 33%.

How did the target mRNA inhibition (MM.1R, 1 µM) turn out when ATGTTGCATAGGCATC (sugars k3 d10 k3, PS) was run?
The target mRNA inhibition was 10%.

With ATTAAAGAGTGGTACA (sugars k3 d10 k3, PS) as the sequence, how does the target mRNA inhibition (SK-MEL-28, 4 µM) read?
The target mRNA inhibition was -7%.

For ATTAAAGGGTAAGCAC (sugars k3 d10 k3, PS), which target mRNA inhibition (SK-MEL-28, 4 µM) is on record?
Its target mRNA inhibition is 32%.

With ATTACTAGATTGTAGG (sugars k3 d10 k3, PS) as the sequence, how does the target mRNA inhibition (SK-MEL-28, 4 µM) read?
Its target mRNA inhibition is 50%.

ATTACTGCTTGAGGTT (sugars k3 d10 k3, PS) was tested. Which target mRNA inhibition (SK-MEL-28, 4 µM) did it give?
Its target mRNA inhibition is 62%.

For ATTATAGAGCATCACT (sugars k3 d10 k3, PS), which target mRNA inhibition (MM.1R, 1 µM) is on record?
Its target mRNA inhibition is -6%.

Which target mRNA inhibition (MM.1R, 1 µM) does the source give for “ATTATATACTGGTTGG (sugars kdddddddddkekeke, PS)” here?
The target mRNA inhibition was 27%.

Which target mRNA inhibition (MM.1R, 1 µM) does the source give for “ATTATATACTGGTTGG (sugars kkdddddddddekeke, PS)” here?
The target mRNA inhibition was 43%.

“ATTATATACTGGTTGG (sugars kkdddddddddkdkdk, PS)” was tested. Which target mRNA inhibition (MM.1R, 1 µM) did it give?
Its target mRNA inhibition is 28%.

With ATTCTTAGAATGCATA (sugars k3 d10 k3, PS) as the sequence, how does the target mRNA inhibition (SK-MEL-28, 4 µM) read?
Its target mRNA inhibition is 38%.

With ATTCTTAGAATGCATA (sugars k4 d8 k4, PS) as the sequence, how does the target mRNA inhibition (SK-MEL-28, 4 µM) read?
Its target mRNA inhibition is 33%.

With ATTGAGGCATACAGTG (sugars k3 d10 k3, PS) as the sequence, how does the target mRNA inhibition (SK-MEL-28, 4 µM) read?
Its target mRNA inhibition is 30%.

For ATTTATACTGTCTGGT (sugars k3 d10 k3, PS), which target mRNA inhibition (SK-MEL-28, 4 µM) is on record?
Its target mRNA inhibition is 49%.

How did the target mRNA inhibition (SK-MEL-28, 4 µM) turn out when ATTTTAAGGCCCTGTC (sugars k3 d10 k3, PS) was run?
The target mRNA inhibition was 34%.

How did the target mRNA inhibition (SK-MEL-28, 4 µM) turn out when CAAAACAGTAAGAGGG (sugars k3 d10 k3, PS) was run?
Its target mRNA inhibition is 31%.

Which target mRNA inhibition (SK-MEL-28, 4 µM) does the source give for CAAAACGCAGAGCCAG (sugars k3 d10 k3, PS) here?
Its target mRNA inhibition is 58%.

CAAAATGGTGTGTAAG (sugars k3 d10 k3, PS) was tested. Which target mRNA inhibition (SK-MEL-28, 4 µM) did it give?
Its target mRNA inhibition is 25%.

CAAAGAGCTTGCAGGT (sugars k3 d10 k3, PS) was tested. Which target mRNA inhibition (SK-MEL-28, 4 µM) did it give?
Its target mRNA inhibition is 4%.

CAAAGCAAGTGTCTAA (sugars k3 d10 k3, PS) was tested. Which target mRNA inhibition (SK-MEL-28, 4 µM) did it give?
The target mRNA inhibition was 23%.

Which target mRNA inhibition (MM.1R, 1 µM) does the source give for CAAAGCGCACCGCAGG (sugars k3 d10 k3, PS) here?
Its target mRNA inhibition is -4%.

For CAAAGCGGGTTCACAA (sugars k3 d10 k3, PS), which target mRNA inhibition (SK-MEL-28, 4 µM) is on record?
Its target mRNA inhibition is 16%.

Which target mRNA inhibition (SK-MEL-28, 4 µM) does the source give for CAAATGACTTAGTCAG (sugars k3 d10 k3, PS) here?
The target mRNA inhibition was 55%.

How did the target mRNA inhibition (SK-MEL-28, 4 µM) turn out when CAACACGGGAATTTCC (sugars k3 d10 k3, PS) was run?
The target mRNA inhibition was 55%.

How did the target mRNA inhibition (SK-MEL-28, 4 µM) turn out when CAACAGCACTGTCCAC (sugars k3 d10 k3, PS) was run?
Its target mRNA inhibition is 43%.

For CAACCATTTTCACAAG (sugars k3 d10 k3, PS), which target mRNA inhibition (SK-MEL-28, 4 µM) is on record?
Its target mRNA inhibition is 17%.
